# Reference: US8044201B2, “Stem cell cultures” (The Scripps Research Institute, priority 2008, dated 2011)
# “Also recorded” adds a separate entry of the source.
# Tests used:
# [1] = tested on: hESCs; assay: ALP positive colony formation by dissociated hESCs (clonal / low-density survival assay); type: cell-based, human; details: PKC agonist treatment
# Protocol: (§1) Human ESC lines H1, HUES7 and HUES9 were cultured on irradiated MEF feeder cells in DMEM-F12 supplemented with 2 mM L-glutamine, 1× nonessential amino acids, 20% serum replacement (Invitrogen) and 10 ng/ml basic Fibroblast growth factor (Invitrogen). Chemically-defined and feeder-free hESC culture was described previously (Yao, S. et al., Proc Natl Acad Sci USA 103 (18):6907-6912 (2006)). Briefly, hESCs were grown on Matrigel-coated tissue culture plates in N2B27-CDM (DMEM-F12 supplemented with 1× N2 supplements, 1× B27 supplements, 2 mM L-glutamine, 0.11 mM 2-mercaptoethanol, 1× nonessential amino acids, and 0.5 mg/ml BSA (fraction V)) and 20 ng/ml bFGF. Human ESCs were passaged every 5-6 days with 0.05% trypsin.
# For clonal survival assays, single hESCs were diluted to clonal density and plated onto 96-well Matrigel-coated plate. For low-density survival assays, 500 cells were plated onto 96-well Matrigel-coated plate. To visualize hESC colonies, cultures were fixed in 4% paraformaldehyde in PBS for 5 min, washed once in PBS, then stained for alkaline phosphatase activity as described in manufacturer's instructions. ALP positive colonies were counted on an inverted microscope.
# [2] = tested on: β1 integrin; assay: Active conformation of β1 integrin in hESCs (HUTS-21 binding, flow cytometry and immunostaining); type: cell-based, human; details: for level of HUTS-21 binding (activated β1 integrin): trypsin-dissociated hESCs
# Text: To gain insights into the mechanism of β1 integrin regulation by Tzv and Ptn, we investigated whether the compounds' effect is due to changes of integrin expression. In contrast to E-cadherin, β1 integrin was not cleaved by trypsin. […] Thus, Tzv and Ptn are likely to affect cell adhesion by modulating integrin activity (FIGS. 3d,e). To examine the effects of compound treatment on the activity of β1 integrin, we used the monoclonal antibody HUTS-21, which specifically binds to the activated form of the β1 integrin (Luque, A. et al., J Biol Chem 271 (19):11067-11075 (1996)).
# (§2) To assess the expression of E-cadherin, activated integrin and SSEA4, dissociated cells (3×10^5) were washed with PBS and resuspended in PBS containing 2% goat serum. Cells were then incubated with the appropriate antibody for 1 h at 4° C., washed with the blocking solution, and labeled with FITC-conjugated secondary antibody for 30 min at 4° C. Cells were then washed and analyzed on a FACS Calibur flow cytometer.
# [3] = tested on: hESCs; assay: Cell adhesion assay of dissociated hESCs; type: cell-based, human
# Protocol: Cell adhesion assays were performed in 96-well microtiter plates coated with Matrigel. After trypsin, hESCs were resuspended in the chemically-defined media containing the desired compounds. Cells were then added to the microtiter wells and incubated for 3 h at 37° C. Unbound and loosely bound cells were removed by shaking and washing, and the remaining cells were then fixed immediately. The wells were washed 3 times with 200 μl of H2O, and attached cells were stained with Crystal Violet (Sigma). The absorbance of each well at 570 nm was then measured. For experiments with blocking antibodies, cells were pre-incubated with antibodies on ice for 30 min, and adhesion assays were performed in the presence of antibodies. Each sample was assayed independently for three times.
# [4] = tested on: epithelial to mesenchymal transition/EMT; assay: Epithelial to mesenchymal transition (EMT) / MET; type: cell-based
# [5] = tested on: human embryonic stem cell, mouse embryonic stem cell, multiple neural stem cells, skin stem cells, mesenchymal stem cells, hematopoietic stem cells, stromal …; assay: Survival and anti-differentiation of stem cells ex vivo after isolation; type: cell-based; details: contacted immediately after isolation of the cells
# Text: In some embodiments, the invention provides methods of promoting survival and anti-differentiation in stem cells ex-vivo.
# [6] = tested on: ERK and AKT; assay: Western blot of ERK and AKT phosphorylation in dissociated hESCs; type: cell-based, human
# [7] = tested on: growth factor receptor; assay: Western blot of growth factor receptor phosphorylation in hESCs; type: cell-based, human; details: hESCs treated for 2 h, DMSO control
# [8] = tested on: hESCs; assay: Cell death / survival analysis of dissociated hESCs in adherent (Matrigel) or suspension culture; type: cell-based, human; details: for survival of dissociated hESCs in adherent culture: Matrigel-coated plate; for survival of dissociated hESCs in adherent culture / survival of dissociated hESCs in suspension culture: 2 μM
# Protocol: as §1
# The hESCs under different treatments were dissociated by trypsin and fixed by 4% paraformaldehyde. And the staining was carried out according to the manufacturer's instructions (MBL Laboratories, Watertown, Mass.). After staining, samples were analysed by flow cytometry using a FACS Calibur flow cytometer (BD).
# [9] = tested on: hESCs; assay: Long-term serial passage of hESCs in Tzv or Ptn-containing chemically-defined medium (morphology, pluripotency markers, karyotype); type: cell-based, human; details: serially passaged for more than 20 generations in compound-containing chemically-defined medium
# Protocol: as §1
# Immunostaining was performed as described previously (Yao, S. et al., Proc Natl Acad Sci USA 103 (18):6907-6912 (2006)). Briefly, cells were fixed with 4% paraformaldehyde at room temperature (RT) for 15 min. The cells were then incubated at RT in blocking buffer for 1 hour. […]
# Teratoma formation experiments were performed by injecting 3-5 million hESCs (maintained in the presence of compounds Tvz or Ptn) under the kidney capsule of nude mice. After 4-5 weeks, all mice developed teratomas, which were removed and then immunohistologically analyzed by The Scripps Research Institute Research Histology Service and Animal Resources. […]
# [10] = tested on: E-cadherin; assay: E-cadherin level in hESCs after trypsin dissociation (Western blot, flow cytometry, semiquantitative RT-PCR); type: cell-based, human
# Protocol: as §2
# [11] = tested on: mouse P1 cortical explants; assay: Neurite / axon outgrowth from cortical explants; type: cell-based
# Protocol: Compounds of formula I and III (i.e., Tvz and Ptn) are effective at promoting axonal regeneration and functional recovery in injured central nervous system. […] Tzv (3 μM) was tested on mouse P1 cortical explants, with axon outgrowth as an outcome read-out. Tzv was added to the medium 20 minutes after plating, with DMSO as a control. […] Accordingly, in some embodiments, a compound of the present invention is administered to an individual having a central nervous system injury or who is in need or would otherwise benefit from axonal regeneration.
# [12] = tested on: primary human pancreatic islets/beta cells; assay: Cell death of dispersed primary pancreatic islets/beta cells plated as single cells on matrigel or laminin; type: cell-based; details: 1-2 mM added to the media
# Protocol: For example, the inventors dispersed primary human pancreatic islets/beta cells plated as single cells onto a tissue culture plate that was coated with matrigel or laminin. […] Accordingly, in some embodiments, a compound of the present invention is administered to an individual in need of pancreatic beta and/or islet cells, wherein administration of the compound results in an increase in the number of beta or islet cells in the individual.
# [13] = tested on: E-cadherins to EGFR1 and ERB2; assay: Immunoprecipitation of E-cadherins with EGFR1 and ERB2 in hESCs; type: cell-based, human
# Text: ALP detection kit and integrin antibodies were from Chemicon. AG825 (Erb2 inhibitor), AG1478 (EGFR inhibitor), PPP (IGFR1 inhibitor) were purchased from Calbiochem. Antibodies raised against the intracytoplasmic tail of E-cadherins (Transduction Laboratories, Lexington, Ky.) were used for immunoprecipitation. The antibody TS2/16 was from Pierce. Antibodies to the extracellular domain of E-cadherin molecule were from Zymed (Carlsbad). Antibodies against extracellular signal-regulated kinase/MAPK, EGFR1, ERB2, GADPH and phosphorylated form of AKT were from Cell Signaling. Mouse monoclonal anti-phosphotyrosine (4G-10 clone) was from Upstate Biotechnology. Ptn and Tzv were added to culture medium at 2 μM.
SMILES,induction of MET and inhibition of EMT [4],survival and anti-differentiation of stem cells [5],survival of dissociated hESCs in adherent culture [8],survival of dissociated hESCs in suspension culture [8],level of HUTS-21 binding (activated β1 integrin) [2],"maintenance of hESC morphology, pluripotency markers and karyotype [9]",adhesion of dissociated hESCs to Matrigel or laminin [3],adhesion of hESCs to gelatin or poly-lysine [3],further results
"CCCCCCCCCCCCCC(=O)O[C@@H]1[C@@H](C)[C@@]2(O)[C@@H](C=C(CO)C[C@]3(O)C(=O)C(C)=C[C@@H]23)[C@@H]2C(C)(C)[C@]12OC(C)=O [PMA, phorbol 12-myristate 13-acetate, reference compound]",,,,,,,,,"colony formation of dissociated hESCs [1]: substantial increase; integrin activation ([2]; dissociated hESCs, PMA 10 nM (FIG. 3k)): integrin activation; cell adhesion of dissociated hESCs ([3]; PKC agonist treatment): substantial increase"
"O=S(=O)(NCC1CC1)c1ccc(Nc2nccc(N3CCCc4cc(O)ccc43)n2)cc1 [Ptn, N-(cyclopropylmethyl)-4-(4-(6-hydroxy-3,4-dihydroquinolin-1(2H)-yl)pyrimidin-2-ylamino)benzenesulfonamide]",induce MET (the reverse of EMT) and inhibit EMT,effective in promoting survival and anti-differentiation,promoted survival; also recorded: dramatic effect on survival,no effect,increased,"maintained the characteristic morphology of hESCs, the expression of typical pluripotency markers, and normal karyotype",dramatically increased adhesion,not affected,phosphorylation of ERK and AKT [6]: increased; phosphorylation of growth factor receptor [7]: significantly increased
"O=C(NCc1ccccc1)c1csc(Nc2ccncn2)n1 [Tzv, N-benzyl-2-(pyrimidin-4-ylamino)thiazole-4-carboxamide]",induce MET (the reverse of EMT) and inhibit EMT,effective in promoting survival and anti-differentiation,greatly improved survival; also recorded: dramatic effect on survival,greatly improved survival,increased,"maintained the characteristic morphology of hESCs, the expression of typical pluripotency markers, and normal karyotype",dramatically increased adhesion,not affected,"full-length E-cadherin expression (Western blot) ([10]; hESCs after trypsin dissociation): significantly increased; cell surface E-cadherins (flow cytometry) ([10]; hESCs after trypsin treatment): significantly increased; E-cadherin transcripts (semiquantitative RT-PCR) ([10]; vs mock controls): comparable amounts; axon outgrowth ([11]; 3 μM, added 20 minutes after plating, observed 4 days, DMSO control): dramatic effect in promoting axon outgrowth; neurite outgrowth from primary neuronal cells ([11]; primary neuronal cells from mice): promote neurite outgrowth; cell aggregate formation in suspension ([8]; hESCs grown in suspension): formed nice cell aggregates; cell death of pancreatic islets/beta cells [12]: cell death was inhibited; binding of E-cadherins to EGFR1 and ERB2 [13]: induced binding"
"CN(C)CCCn1cc(C2=C(c3c[nH]c4ccccc34)C(=O)NC2=O)c2ccccc21 [bisindolylmaleimide I, reference compound]",,,,,,,,,effect on increased cell adhesion induced by Ptn ([3]; in combination with Ptn): antagonize; effect on cell adhesion induced by Tzv ([3]; in combination with Tzv): no effect
